In ChEMBL document CHEMBL4334438, “Discovery of novel glycogen synthase kinase-3α inhibitors: Structure-based virtual screening, preliminary SAR and biological evaluation for treatment of acute myeloid leukemia” (Eur J Med Chem, 2019) one finds Activity and IC50 data, which are given here for two compounds.

In assay [1] the target is Homeodomain-interacting protein kinase 1 (Homo sapiens) (UniProt Q86Z02). Kind of assay: Inhibition of human HIPK1 (158 to 555 residues) assessed as residual activity at 1 uM using myelin basic protein as substrate after 40 mins by [gamma-33ATP] radiometric assay relative to control.
The target of assay [2] is Calcium/calmodulin-dependent protein kinase type II subunit gamma (Homo sapiens) (UniProt Q13555). Kind of assay: Inhibition of recombinant human CaMK2gamma (1 to 330 residues) assessed as residual activity at 1 uM […] incubated for 40 mins in presence of [gamma-33ATP] by scintillation counting based radiometry assay relative to control.
For a further assay, the species on record is Homo sapiens. Kind of assay: Inhibition of recombinant human Ros V2262A mutant (1883 to end residues) assessed as residual activity at 1 uM using KKKSPGEYVNIEFG as substrate measured after 40 mins in presence of [gamma33P]ATP by scintillation counting method relative to control.
Assay [3] addresses Glycogen synthase kinase-3 alpha (Homo sapiens, UniProt P49840). Kind of assay: Inhibition of human GSK-3alpha S449A mutant (2 to end residues) using phospho GS2 peptide as substrate after 40 mins in presence of [gamma-33ATP] by scintillation counting method.
Assay [4] deals with Tyrosine-protein kinase ABL1 (Homo sapiens) (UniProt P00519). Kind of assay: Inhibition of human ABL1 (27 to end residues) assessed as residual activity at 1 uM using EAIYAAPFAKKK as substrate incubated for 40 mins in presence of [gamma-33ATP] by scintillation counting based radiometry assay relative to control.
In assay [5] the target is Phosphorylase b kinase gamma catalytic chain, skeletal muscle/heart isoform (Homo sapiens) (UniProt Q16816). Kind of assay: Inhibition of recombinant full-length human PhKgamma1 assessed as residual activity at 1 uM using KKLNRTLSFAEPG as substrate measured after 120 mins in presence of [gamma33P]ATP by scintillation counting method relative to control.
For assay [6], the target named is Tyrosine-protein kinase CSK (Homo sapiens) (UniProt P41240). Kind of assay: Inhibition of recombinant human CSK assessed as residual activity at 1 uM poly(Glu, Tyr) 4:1 as substrate incubated 40 mins in presence of [gamma-33ATP] by scintillation counting based radiometry assay relative to control.
Assay [7] has as its system Mitogen-activated protein kinase kinase kinase 10 (MLK2). Kind of assay: Inhibition of recombinant human MLK2 (1 to 499 residues) assessed as residual activity at 1 uM using myelin basic protein as substrate incubated for 40 mins in presence of [gamma-33ATP by scintillation counting based radiometry assay relative to control.
For assay [8], the target named is Tyrosine-protein kinase Fyn (Homo sapiens) (UniProt P06241). Kind of assay: Inhibition of recombinant full length human Fyn assessed as residual activity at 1 uM using KVEKIGEGTYGVVYK as substrate at 40 mins in presence of [gamma-33ATP] by scintillation counting based radiometry assay relative to control.
Assay [9] deals with NUAK family SNF1-like kinase 2 (Homo sapiens) (UniProt Q9H093). Kind of assay: Inhibition of recombinant human full length NUAK2 assessed as residual activity at 1 uM using KKKVSRSGLYRSPSMPENLNRPR as substrate measured after 40 mins in presence of [gamma33P]ATP by scintillation counting method relative to control.
Assay [10] has as its system Platelet-derived growth factor receptor alpha (Homo sapiens), P16234 [V561D]. Kind of assay: Inhibition of human PDGFRalpha V561D mutant (550 to end residues) assessed as residual activity at 1 uM using GGMEDIYFEFMGGKKK as substrate measured after 40 mins in presence of [gamma33P]ATP by scintillation counting method relative to control.
Assay [11] deals with Wee1-like protein kinase (Homo sapiens) (UniProt P30291). Kind of assay: Inhibition of human Wee1 (214 to end residues) assessed as residual activity at 1 uM using LSNLYHQGKFLQTFCGSPLYRRR as substrate measured after 40 mins in presence of [gamma33P]ATP by scintillation counting method relative to control.
In assay [12] the test system is Serine/threonine-protein kinase N1 (Homo sapiens), Q16512 [V901I]. Kind of assay: Inhibition of recombinant human PRK1 V901I mutant (498 to end residues) assessed as residual activity at 1 uM using KKLNRTLSFAEPG as substrate measured after 40 mins in presence of [gamma33P]ATP by scintillation counting method relative to control.
For assay [13], the target named is Receptor-interacting serine/threonine-protein kinase 1 (Homo sapiens) (UniProt Q13546). Kind of assay: Inhibition of recombinant human RIPK1 (8 to 322 residues) assessed as residual activity at 1 uM using myelin basic protein as substrate measured after 120 mins in presence of [gamma33P]ATP by scintillation counting method relative to control.
Assay [14] concerns the target cAMP-dependent protein kinase catalytic subunit alpha (Homo sapiens) (UniProt P17612). Kind of assay: Inhibition of recombinant human PKA assessed as residual activity at 1 uM using Kemptide as substrate measured after 40 mins in presence of [gamma33P]ATP by scintillation counting method relative to control.
Assay [15] deals with Serine/threonine-protein kinase ULK2 (Homo sapiens) (UniProt Q8IYT8). Kind of assay: Inhibition of human ULK2 (1 to 306 residues) assessed as residual activity at 1 uM using casein as substrate measured after 40 mins in presence of [gamma33P]ATP by scintillation counting method relative to control.
The target of assay [16] is Insulin-like growth factor 1 receptor (Homo sapiens) (UniProt P08069). Kind of assay: Inhibition of human activated IGF1R (959 to end residues) assessed as residual activity at 1 uM using KKKSPGEYVNIEFG as substrate after 40 mins by [gamma-33ATP] radiometric assay relative to control.
The subject of assay [17] is Homeodomain-interacting protein kinase 2 (Homo sapiens), Q9H2X6 [UNDEFINED MUTATION]. Kind of assay: Inhibition of human HIPK2 I471N mutant (165 to 564 residues) assessed as residual activity at 1 uM using myelin basic protein as substrate after 40 mins by [gamma-33ATP] radiometric assay relative to control.
The subject of assay [18] is Receptor tyrosine-protein kinase erbB-2 (Homo sapiens), P04626 [G778D]. Kind of assay: Inhibition of recombinant human ERBB2 G778D mutant (676 to end residues) assessed as residual activity at 1 uM using poly(Glu, Tyr) 4:1 as substrate at 40 mins in presence of [gamma-33ATP] by scintillation counting based radiometry assay relative to control.
In assay [19] the test system is Serine/threonine-protein kinase TAO3 (Homo sapiens), Q9H2K8 [UNDEFINED MUTATION]. Kind of assay: Inhibition of human TAO3 (1 to 411 residues) assessed as residual activity at 1 uM using myelin basic protein as substrate measured after 40 mins in presence of [gamma33P]ATP by scintillation counting method relative to control.
Assay [20] deals with Mitogen-activated protein kinase kinase kinase kinase 1 (Homo sapiens) (UniProt Q92918). Kind of assay: Inhibition of human HPK1 (1 to 346 residues) assessed as residual activity at 1 uM using myelin basic protein as substrate after 40 mins by [gamma-33ATP] radiometric assay relative to control.
Assay [21] deals with Mitogen-activated protein kinase kinase kinase 11 (Homo sapiens) (UniProt Q16584). Kind of assay: Inhibition of recombinant human MLK3 assessed as residual activity at 1 uM using by scintillation counting based radiometry assay relative to control.

Chain of Insulin-like growth factor 1 receptor (Homo sapiens) (P08069 31-736 limits assumed): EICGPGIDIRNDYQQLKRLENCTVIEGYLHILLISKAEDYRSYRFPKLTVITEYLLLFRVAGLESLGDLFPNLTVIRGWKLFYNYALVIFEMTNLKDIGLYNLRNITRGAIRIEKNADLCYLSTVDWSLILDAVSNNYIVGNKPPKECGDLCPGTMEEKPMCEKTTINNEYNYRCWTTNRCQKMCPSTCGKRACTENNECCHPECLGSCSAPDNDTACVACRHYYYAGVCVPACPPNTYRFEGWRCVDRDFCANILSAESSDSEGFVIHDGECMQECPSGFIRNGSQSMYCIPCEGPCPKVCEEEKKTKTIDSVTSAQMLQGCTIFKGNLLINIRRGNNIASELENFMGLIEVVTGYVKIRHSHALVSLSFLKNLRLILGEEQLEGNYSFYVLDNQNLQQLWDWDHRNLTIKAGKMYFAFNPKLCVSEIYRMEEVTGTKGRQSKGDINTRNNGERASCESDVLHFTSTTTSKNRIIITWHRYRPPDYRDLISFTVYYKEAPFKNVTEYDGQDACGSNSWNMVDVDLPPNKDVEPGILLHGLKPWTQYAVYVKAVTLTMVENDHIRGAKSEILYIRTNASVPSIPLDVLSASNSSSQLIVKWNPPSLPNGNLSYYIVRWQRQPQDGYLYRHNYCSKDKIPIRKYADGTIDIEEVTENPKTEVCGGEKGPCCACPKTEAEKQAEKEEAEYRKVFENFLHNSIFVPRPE
Chain of Insulin-like growth factor 1 receptor (Homo sapiens) (P08069 741-1367 limits assumed): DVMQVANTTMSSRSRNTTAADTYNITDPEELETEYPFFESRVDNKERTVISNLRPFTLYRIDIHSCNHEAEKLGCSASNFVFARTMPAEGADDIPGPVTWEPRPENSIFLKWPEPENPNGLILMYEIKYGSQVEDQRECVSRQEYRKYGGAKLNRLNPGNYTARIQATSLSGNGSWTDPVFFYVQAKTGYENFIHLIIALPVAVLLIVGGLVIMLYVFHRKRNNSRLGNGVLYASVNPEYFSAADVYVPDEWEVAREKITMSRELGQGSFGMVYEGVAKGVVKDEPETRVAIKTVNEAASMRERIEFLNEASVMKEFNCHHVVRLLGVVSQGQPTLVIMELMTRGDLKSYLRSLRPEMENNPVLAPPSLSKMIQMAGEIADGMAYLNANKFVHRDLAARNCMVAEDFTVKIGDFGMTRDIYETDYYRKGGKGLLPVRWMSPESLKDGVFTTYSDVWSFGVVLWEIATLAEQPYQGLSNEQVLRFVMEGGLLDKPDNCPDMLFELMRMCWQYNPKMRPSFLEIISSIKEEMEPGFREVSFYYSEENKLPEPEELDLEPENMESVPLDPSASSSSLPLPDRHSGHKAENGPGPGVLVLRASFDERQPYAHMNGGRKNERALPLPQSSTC
Chain of Serine/threonine-protein kinase ULK2 (Homo sapiens) (Q8IYT8 whole entry, the tested form may be a part): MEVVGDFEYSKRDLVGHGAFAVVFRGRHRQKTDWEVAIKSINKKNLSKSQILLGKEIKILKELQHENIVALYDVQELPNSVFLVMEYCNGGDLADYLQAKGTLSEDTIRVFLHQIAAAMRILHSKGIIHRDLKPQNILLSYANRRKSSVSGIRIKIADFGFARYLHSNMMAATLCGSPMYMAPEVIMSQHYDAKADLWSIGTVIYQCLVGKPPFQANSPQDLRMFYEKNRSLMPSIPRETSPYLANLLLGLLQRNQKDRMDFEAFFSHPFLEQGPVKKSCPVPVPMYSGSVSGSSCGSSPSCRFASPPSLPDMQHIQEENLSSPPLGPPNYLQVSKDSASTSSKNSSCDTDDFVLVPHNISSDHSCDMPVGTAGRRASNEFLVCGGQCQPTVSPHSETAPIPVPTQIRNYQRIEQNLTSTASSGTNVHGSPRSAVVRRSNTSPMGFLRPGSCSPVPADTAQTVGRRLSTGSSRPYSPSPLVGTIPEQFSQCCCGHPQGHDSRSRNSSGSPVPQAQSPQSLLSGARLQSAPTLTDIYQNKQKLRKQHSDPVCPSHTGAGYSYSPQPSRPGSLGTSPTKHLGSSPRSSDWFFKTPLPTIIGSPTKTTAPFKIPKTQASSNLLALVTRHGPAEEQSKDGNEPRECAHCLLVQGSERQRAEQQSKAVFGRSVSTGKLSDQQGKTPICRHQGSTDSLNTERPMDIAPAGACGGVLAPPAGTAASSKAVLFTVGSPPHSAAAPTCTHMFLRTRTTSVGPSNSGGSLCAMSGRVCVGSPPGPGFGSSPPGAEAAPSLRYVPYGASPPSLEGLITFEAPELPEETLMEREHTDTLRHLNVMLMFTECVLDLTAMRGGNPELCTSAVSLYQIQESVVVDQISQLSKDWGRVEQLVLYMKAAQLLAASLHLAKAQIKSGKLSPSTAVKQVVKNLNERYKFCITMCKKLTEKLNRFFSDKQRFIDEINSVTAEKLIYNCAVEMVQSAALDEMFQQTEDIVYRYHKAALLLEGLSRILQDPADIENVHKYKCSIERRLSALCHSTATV
Chain of Homeodomain-interacting protein kinase 2 (Homo sapiens), Q9H2X6 [UNDEFINED MUTATION] (Q9H2X6 whole entry, looked up, stated change not applied, the tested form may be a part): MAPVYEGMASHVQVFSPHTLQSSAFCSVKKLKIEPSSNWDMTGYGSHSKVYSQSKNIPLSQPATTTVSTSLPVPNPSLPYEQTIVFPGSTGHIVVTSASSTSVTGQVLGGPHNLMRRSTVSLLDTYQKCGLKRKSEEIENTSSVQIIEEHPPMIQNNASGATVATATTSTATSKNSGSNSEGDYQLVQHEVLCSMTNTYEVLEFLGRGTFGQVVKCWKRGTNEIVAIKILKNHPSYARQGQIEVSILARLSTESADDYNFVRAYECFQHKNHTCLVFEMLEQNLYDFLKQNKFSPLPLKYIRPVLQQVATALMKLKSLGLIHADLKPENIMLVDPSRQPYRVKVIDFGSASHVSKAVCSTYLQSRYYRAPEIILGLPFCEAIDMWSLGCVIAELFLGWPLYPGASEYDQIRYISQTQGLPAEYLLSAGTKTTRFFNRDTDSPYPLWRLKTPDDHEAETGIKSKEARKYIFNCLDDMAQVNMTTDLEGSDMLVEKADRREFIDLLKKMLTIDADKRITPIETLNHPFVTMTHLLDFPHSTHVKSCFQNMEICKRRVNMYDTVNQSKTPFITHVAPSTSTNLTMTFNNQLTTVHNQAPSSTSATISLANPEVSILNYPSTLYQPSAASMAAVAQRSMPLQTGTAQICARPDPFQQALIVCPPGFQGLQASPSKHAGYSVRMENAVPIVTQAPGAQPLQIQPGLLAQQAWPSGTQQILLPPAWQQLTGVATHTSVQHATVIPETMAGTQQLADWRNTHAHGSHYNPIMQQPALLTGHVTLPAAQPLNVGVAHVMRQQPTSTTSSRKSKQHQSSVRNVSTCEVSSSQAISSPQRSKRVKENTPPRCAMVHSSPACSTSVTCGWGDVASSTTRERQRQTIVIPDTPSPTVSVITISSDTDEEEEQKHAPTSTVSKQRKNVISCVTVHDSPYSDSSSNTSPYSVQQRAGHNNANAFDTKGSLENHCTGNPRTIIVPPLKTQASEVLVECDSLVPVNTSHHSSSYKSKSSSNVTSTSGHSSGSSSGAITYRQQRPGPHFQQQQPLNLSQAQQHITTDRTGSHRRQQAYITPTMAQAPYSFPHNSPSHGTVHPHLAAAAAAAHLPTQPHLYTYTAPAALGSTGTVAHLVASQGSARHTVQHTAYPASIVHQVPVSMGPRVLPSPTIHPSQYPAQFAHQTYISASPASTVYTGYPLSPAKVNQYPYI
Chain of Serine/threonine-protein kinase TAO3 (Homo sapiens), Q9H2K8 [UNDEFINED MUTATION] (Q9H2K8 whole entry, looked up, stated change not applied, the tested form may be a part): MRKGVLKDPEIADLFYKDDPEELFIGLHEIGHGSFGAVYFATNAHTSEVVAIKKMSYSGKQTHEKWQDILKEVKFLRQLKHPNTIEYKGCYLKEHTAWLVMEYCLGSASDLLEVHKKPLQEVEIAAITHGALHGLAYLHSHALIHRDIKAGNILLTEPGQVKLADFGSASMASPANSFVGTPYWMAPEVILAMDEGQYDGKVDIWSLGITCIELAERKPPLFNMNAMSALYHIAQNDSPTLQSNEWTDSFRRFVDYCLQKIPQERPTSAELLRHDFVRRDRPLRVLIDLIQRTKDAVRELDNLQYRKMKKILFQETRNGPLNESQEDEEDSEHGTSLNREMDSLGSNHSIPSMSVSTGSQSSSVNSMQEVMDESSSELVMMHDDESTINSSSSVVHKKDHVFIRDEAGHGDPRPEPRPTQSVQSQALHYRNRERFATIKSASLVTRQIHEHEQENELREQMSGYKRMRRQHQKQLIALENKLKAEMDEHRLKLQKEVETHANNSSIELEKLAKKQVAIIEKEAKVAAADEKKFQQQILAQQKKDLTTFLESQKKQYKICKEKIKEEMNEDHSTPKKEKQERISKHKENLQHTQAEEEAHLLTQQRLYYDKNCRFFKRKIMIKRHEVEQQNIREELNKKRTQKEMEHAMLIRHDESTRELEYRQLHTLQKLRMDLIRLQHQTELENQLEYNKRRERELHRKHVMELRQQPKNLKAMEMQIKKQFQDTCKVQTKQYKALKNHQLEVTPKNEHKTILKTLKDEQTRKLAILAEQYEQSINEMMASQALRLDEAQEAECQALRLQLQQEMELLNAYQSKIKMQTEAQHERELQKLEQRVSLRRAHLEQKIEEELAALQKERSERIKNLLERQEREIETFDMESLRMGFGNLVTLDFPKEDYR
Chain of Calcium/calmodulin-dependent protein kinase type II subunit gamma (Homo sapiens) (Q13555 whole entry, the tested form may be a part): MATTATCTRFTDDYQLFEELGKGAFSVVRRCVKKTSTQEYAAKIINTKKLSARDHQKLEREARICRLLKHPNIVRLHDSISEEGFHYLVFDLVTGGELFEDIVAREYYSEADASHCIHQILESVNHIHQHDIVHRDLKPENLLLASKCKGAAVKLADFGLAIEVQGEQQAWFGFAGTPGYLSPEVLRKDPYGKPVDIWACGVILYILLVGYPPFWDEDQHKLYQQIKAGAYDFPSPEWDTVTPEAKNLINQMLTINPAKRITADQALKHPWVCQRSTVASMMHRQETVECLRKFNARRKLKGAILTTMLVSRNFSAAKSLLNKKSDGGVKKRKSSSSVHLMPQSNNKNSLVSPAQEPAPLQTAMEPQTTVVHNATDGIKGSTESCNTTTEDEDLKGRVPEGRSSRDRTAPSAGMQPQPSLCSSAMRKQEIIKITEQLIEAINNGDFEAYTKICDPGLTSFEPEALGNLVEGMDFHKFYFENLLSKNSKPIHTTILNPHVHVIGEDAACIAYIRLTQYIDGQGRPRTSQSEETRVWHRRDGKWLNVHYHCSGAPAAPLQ

As usually defined, the IC50 is the concentration needed to halve the response being measured. `C=CCOC(=O)c1cc(-c2ccc(/C=C3/NC(=S)NC3=O)o2)ccc1Cl`: the Activity in assay [1] was determined as 5%; in [2] it was 68%; in the assay listed under Homo sapiens, 118%; in [4], 122%; in [5], 94%; in [6], 102%. For the same compound, the Activity in assay [7] stood at 103%; in [8] it was 102%; in assay [9] it was 111%; in [10], 110%; in assay [11], 106%; in assay [12] it was 98%. The Activity in assay [13] amounted to 106%; in assay [14], 82%; in assay [15], 103%; in assay [16], 96%; in [17] it was 5%; in assay [18], 118%. In addition, the Activity in assay [19] was determined as 87%; in [20], 98%; in assay [21], 89%. Further, the concentration for half-maximal inhibition (IC50) in [3] amounted to 33 nM.

Consider `N=C1NC(=O)/C(=C\c2ccc(-c3cccc([N+](=O)[O-])c3)o2)S1`, for which the Activity in assay [1] amounted to 3%; in assay [2] it was 86%; in the assay filed under Homo sapiens, 95%; in [4], 85%; in assay [5], 91%; in assay [6], 96%. For the same compound, the Activity in [7] was 101%; in assay [8], 79%; in [9] it was 95%; in assay [10] it was 91%; in [11], 103%; in [12], 90%. Also, the Activity in [13] was 100%; in [14], 107%; in assay [15] it was 102%; in assay [16], 99%; in assay [17], 1%; in assay [18], 103%. For the same compound, the Activity in [19] came out at 81%; in assay [20], 97%; in assay [21] it was 96%. Moreover, in [3], the IC50 was 49 nM.
